Values quoted from earlier work in US7645459B2, “Dosage forms of bisphosphonates” (The Procter & Gamble Company, priority 2004, dated 2010).

Settings: administration within 30 minutes of a meal

reduction of the amount absorbed compared to administration in the fasting state: 50%
SMILES: O=P(O)(O)C(O)(Cc1cccnc1)P(=O)(O)O [risedronate, 1-hydroxy-2-(3-pyridinyl)-ethylidene-1,1-bisphosphonic acid]
